Laboratory results taken from PubChem BioAssay (NCI).
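Step 1: Grow cells in 96-well plates. Step 2: Expose to compound for 48 hours at 5 concentrations. Step 3: Interpolate endpoints linearly; if unreached, use highest concentration. Definition used: TGI = concentration required for complete inhibition of growth.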 Where a SMILES comes first, the peptide text is derived from it. [ ]: non-standard residue; d: D form.

Columns and labels:
Test in all cases: NCI-60 cell line screen, 48 h
LOX IMVI melanoma = test system: LOX IMVI melanoma
HOP-92 NSCLC = test system: HOP-92 NSCLC
HCT-116 colon = test system: HCT-116 colon
M14 melanoma = test system: M14 melanoma
SNB-19 CNS = test system: SNB-19 CNS
SF-268 CNS = test system: SF-268 CNS
SN12C renal = test system: SN12C renal
SF-295 CNS = test system: SF-295 CNS
SK-MEL-5 melanoma = test system: SK-MEL-5 melanoma
BT-549 breast = test system: BT-549 breast

SMILES	TGI (LOX IMVI melanoma) [µM]	TGI (HOP-92 NSCLC) [µM]	TGI (HCT-116 colon) [µM]	TGI (M14 melanoma) [µM]	TGI (SNB-19 CNS) [µM]	TGI (SF-268 CNS) [µM]	TGI (SN12C renal) [µM]	TGI (SF-295 CNS) [µM]	TGI (SK-MEL-5 melanoma) [µM]	TGI (BT-549 breast) [µM]
COC(=O)/C=C1\C(CO[Si](C)(C)C(C)(C)C)OC(n2cc(C)c(=O)n(C)c2=O)C1O[Si](C)(C)C(C)(C)C (stereo unspecified)	> 100	> 100	> 100	> 100	> 100	> 100	> 100	> 100	> 100	–
OCc1ccc2c(c1)CC1(Cc3ccccc3C1)C2	29.7	38	35.5	–	–	40.9	45.8	40.6	23.6	24.1
CCOP(=O)(OCC)C(Nc1ccc(Cl)cc1)c1ccc(F)cc1 (stereo unspecified)	29.1	59.1	44.5	37.2	> 100	61.2	53.2	44.8	32.8	–
Cc1cc(C)[n+]2c(c1)C=CC2	> 100	> 100	–	> 100	> 100	> 100	> 100	71.8	43.1	–
O=S(=O)(O)c1cc(S(=O)(=O)O)c2cc(N=Nc3ccc(N=Nc4ccc(/C=C/c5ccc(N=[N+]([O-])c6ccc(/C=C/c7ccc(N=Nc8ccc(N=Nc9ccc%10cc(S(=O)(=O)O)cc(S(=O)(=O)O)c%10c9)cc8)cc7S(=O)(=O)O)c(S(=O)(=O)O)c6)cc5S(=O)(=O)O)c(S(=O)(=O)O)c4)cc3)ccc2c1	> 100	98.9	> 100	–	> 100	> 100	> 100	> 74.3	> 100	–
NC1(c2cc3ccccc3s2)CCCCCC1	43	30.5	29.5	37.2	34.8	–	31	32.5	28.8	32.6
Cc1cc(N(CCC#N)CCC#N)ccc1/C(N=Nc1ccc(C(=O)O)cc1)=N\NC(=O)c1ccccc1	–	–	> 100	> 100	> 100	> 100	> 100	> 100	> 100	> 100
N#CC1=C(O)NC(O)=C(C#N)C1c1c(Cl)cccc1Cl	32	43.9	> 100	> 100	> 100	> 100	> 100	> 100	> 100	–
N#Cc1c(/C=C/c2ccccc2)c2c([nH]c1=S)CCCCC2	> 100	> 100	> 100	> 100	> 100	> 100	> 100	> 100	> 100	–
CC(C)C[C@H](NC(=O)[C@H](CC(C)C)NC(=O)[C@@H](Cc1c[nH]c2ccccc12)NC(=O)[C@H](Cc1ccccc1)NC(=O)[C@@H](Cc1c[nH]c2ccccc12)NC(=O)[C@H](CCC(N)=O)NC(=O)[C@@H](CCC(N)=O)NC(=O)[C@@H]1CCCN1C(=O)[C@@H](CCCCN)NC(=O)[C@H]1CCCN1C(=O)[C@H](N)CCCN=C(N)N)C(N)=O (H-[dR][dP][dK]P[dQ]Q[dW]F[dW]LL-NH2)	> 100	> 100	> 100	–	> 100	> 100	> 100	> 100	> 100	–
CCC[N+](C)(C)CCCNC(=O)c1c(O)c2ccccc2[nH]c1=O	> 100	> 100	> 100	–	–	> 100	> 100	> 100	54.8	> 100
O=c1c2cccnc2oc2c(Cl)cc(-c3nn[nH]n3)cc12	–	> 100	> 100	> 100	> 100	> 100	> 100	–	> 100	–
N#CCCN(CCCCN(CCC#N)C(=O)Nc1ccccc1)C(=O)Nc1ccccc1	> 100	–	> 100	> 100	> 100	> 100	> 100	> 100	> 100	> 100
COC(=O)/C1=C/C=C\C[C@@]2(C)CC(c3ccoc3)OC(=O)[C@@H]2CC[C@H]1C (stereo partly specified)	> 25	> 25	> 25	> 25	> 25	–	> 25	> 25	> 25	> 25
CC(C)(C)OC(=O)N1C(=O)C2CCCC21 (stereo unspecified)	> 100	> 100	> 100	> 100	> 100	> 100	> 100	–	> 100	> 100
COCC(C#N)NC1CC(OC2CC(O)(C(=O)CO)Cc3c(O)c4c(c(O)c32)C(=O)c2c(OC)cccc2C4=O)OC(C)C1O (stereo unspecified)	0.599	5	–	0.774	2.61	0.691	2.02	1.9	0.154	0.653
CCOC(=O)Cc1[nH]c(C(=O)c2ccccc2)cc1C(=O)c1ccccc1	> 100	–	33.4	> 100	> 100	> 100	> 100	> 10	> 100	38.7
CC1(C)CC(=O)c2c(N)n[nH]c2C1	> 100	> 100	> 100	> 100	> 100	–	> 100	> 100	> 100	> 100
COC(=O)N[C@@H]1C[C@H]2CC[C@]1(O[Si](C(C)C)(C(C)C)C(C)C)C(=O)C2	–	70.6	> 100	62.8	39.5	28.6	> 100	39.7	> 100	–
CN(C)C(=O)N1N[C@H](c2ccccc2)[C@@H]1c1ccccc1	> 100	> 100	> 100	> 100	> 100	–	> 100	> 100	> 100	–
Clc1ccc(C2SCc3nc4ccccc4n32)cc1 (stereo unspecified)	40.6	22.3	–	68.1	77	88.4	42.7	> 100	23.3	–
CCN(CC)/N=C\c1c2ccccc2cc2ccccc12	–	61.1	> 100	51.6	> 100	> 100	> 100	> 100	40.2	> 100
[N-]=[N+]=Nc1cc(=O)[nH]c2ccccc12	–	> 100	> 100	> 100	> 100	> 100	> 100	> 100	> 100	> 100
